This assay addresses Cell division control protein 42 homolog (Homo sapiens) (UniProt P60953). In words: activated mutant Cdc42 GTP-binding inhibitors, dose response, biochemical, multiplex bead flow cytometry, Bodipy-FL-GTP (AID 1333).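 Further: potency of compounds that compete with and reduce fluorescent GTP binding.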 The conditions noted are these: bead-based flow cytometry.

SMILES strings stand for the structures.

For the compound `Cc1ccc(SC(CC(=O)c2ccc(C(C)(C)C)cc2)C(=O)O)cc1` (configuration not stated), the EC50 was 5.11 µM.
Next, `Cc1nn(Cc2ccccc2)c(Cl)c1C(=O)O`: 13.9 µM.
In the case of `N#Cc1c(-c2ccccc2)nc(SCC(=O)Nc2ccccc2)[nH]c1=O`, the EC50 was 1.66 µM.
Next, `COc1cccc(-n2nnnc2S(C)(=O)=O)c1`: 15.4 µM; `CCCN1C(=O)/C(=C/C=C2\N(CC)c3ccccc3C2(C)C)SC1=S`: 5.59 µM.
As to `O=C(O)c1cc(Sc2ccc(Cl)cc2)nc2ccccc12`, the EC50 was 18.7 µM.
`O=C(C#Cc1ccccc1)c1cccc([N+](=O)[O-])c1`: the EC50 was 13.5 µM.
Next, `COc1ccc(C2CC(c3ccccc3)=NN2c2ccc(S(N)(=O)=O)cc2)cc1` (configuration not stated): 8.04 µM.
Next, `CS(=O)(=O)c1ccc(C(=O)OCC(=O)NC(=O)C2CCCCC2)cc1[N+](=O)[O-]`: 12.9 µM.
Next, `Cc1ccc(C)c(OCCn2cc(C(=O)O)c3ccccc32)c1`: 0.358 µM.
As to `O=C(NCc1ccc2c(c1)OCO2)c1ccc(CSCc2cccc(Cl)c2)o1`, the concentration giving a half-maximal response (EC50) is 20.6 µM.
Next, `CCCc1nc2c(=O)n(C)c(=O)nc-2n(C)n1`: 1.77 µM.
Next, `O=C(Nc1nnc(-c2ccc3c(c2)OCCO3)o1)c1ccc(Cc2ccccc2)cc1`: 2.79 µM; `O=C(C#CC1CCCCC1)c1ccc([N+](=O)[O-])cc1`: 45.9 µM; `CCn1nc(/C=C/c2ccccc2)nc2c(=O)n(C)c(=O)nc1-2`: 1.44 µM.
Next, `Cc1cc(C)c(C)c(C(=O)c2ccccc2C(=O)O)c1C`: 4.95 µM; `Cc1cc(C(=O)Cn2nc(C(=O)O)c3ccccc3c2=O)c(C)n1-c1ccc(OC(F)F)cc1`: 4.89 µM.
As to `COC(=O)c1cccnc1SCCc1ccccc1`, the half-maximal effective concentration (EC50) was 24.2 µM.
Next, `CC(C)C(NCc1c(Cl)cccc1Cl)C(=O)O` (configuration not stated): 5.85 µM.
The value for `O=C(NCc1cccs1)c1cccnc1C(=O)O` was 4.31 µM; that for `O=C(Nc1ccccc1)C1=C(c2ccccc2)S(=O)(=O)CCS1(=O)=O` was 43.9 µM.
With `O=C(O)c1ccccc1Sc1ncnc2sc3c(c12)CCC3`, the concentration for a half-maximal effect (EC50) is 1.84 µM.
Take `CCOC(=O)c1cc([N+](=O)[O-])c([N+](=O)[O-])cc1NC(C)=O`: the half-maximal effective concentration (EC50) is 7.18 µM.
Regarding `O=C(O)/C=C/c1cn(Cc2ccccc2)nc1-c1cccs1`, the EC50 was 2.18 µM.
With `CCOc1ccc(/C=C2\SC(N3CCc4ccccc4C3)=NC2=O)cc1`, the concentration giving a half-maximal response (EC50) is 16.5 µM.
For the compound `CC(=O)c1ccc(C#CC(=O)c2ccc([N+](=O)[O-])cc2)cc1`, the EC50 is 0.989 µM.
`COc1ccc(-c2cc(C#N)nc(N3CCNCC3)n2)cc1`: the EC50 is 27.1 µM.
Next, `Cc1cccc2cc(CN(Cc3cccs3)C(c3nnnn3C3CCCC3)C(C)C)c(=O)[nH]c12` (configuration not stated): 1.63 µM; `CCc1ccc(NS(=O)(=O)c2ccc3[nH]cc(C(=O)N4CCc5ccccc54)c(=O)c3c2)cc1`: 50.1 µM; `OC(CNCCc1ccc(Cl)cc1)COc1ccc2ccccc2c1` (configuration not stated): 11.3 µM.
For `O=C(O)c1ccccc1NCCc1ccc(Cl)cc1`, the half-maximal effective concentration (EC50) is 0.885 µM.
The value for `Cc1ccc(NC(=O)C2=C(c3ccccc3)S(=O)(=O)CCS2(=O)=O)cc1` was 58.7 µM; that for `COc1cccc(NC(=O)COC(=O)/C=C/c2ccc(Cl)cc2Cl)c1` was 3.53 µM; that for `O=C(C#Cc1ccc(F)cc1)c1ccc([N+](=O)[O-])cc1` was 3.55 µM.
As for `NS(=O)(=O)c1ccc(N2N=C(c3ccccc3)CC2c2cccc(F)c2)cc1` (configuration not stated), the EC50 is 9.59 µM.
Next, `Cc1ccc(-n2c(-c3cnccn3)n[nH]c2=S)c(Br)c1`: 53.8 µM.
Next, `Cc1nc2c(=O)n(C)c(=O)nc-2n(C)n1`: 1.61 µM.
